Converted amounts (≈) assume the structure as drawn. Where a name gives a salt, the structure may show the parent alone.

The subject of series [1] is Staphylococcus aureus subsp. aureus ATCC29213. The series is described as follows: Antibacterial assay. In kind it is cell-based. As to conditions: 200 μM, 24 h. As for the experimental part: (§1) In this study, the tested bacteria strains, Escherichia coli ATCC25922, Staphylococcus aureus subsp. aureus ATCC29213, Salmonella enterica subsp. enterica ATCC14028, Pseudomonas aeruginosa ATCC27853, methicillin-resistant S. aureus (MRSA) were purchased from China General Microbiological Culture Collection Center (CGMCC). All the strains were cultured in Mueller-Hinton broth (Oxoid, Thermo Fisher Scientific) at 37°C with shaking at 200 rpm overnight. Each culture was diluted 40-fold in fresh MHB broth and incubated at 37°C with shaking (200 rpm) for another 2–3 h. The mid-log phase cultures were diluted to a concentration of 5 × 10^5 CFU/mL by McFarland Standards, which was used as seeding solution for following antibacterial assays. Each well of the compound-containing 96-well plates was seeded with 100 μL of aforementioned seeding solution, giving a final compound concentration 200 μM. Plates were covered and incubated at 37°C for 24 h. The inhibitory rates were calculated by [(1-OD625sample)/OD625negative control] × 100%. Penicillin G sodium and ceftazidime were used as positive controls (inhibitory rates >99%) ([Zhao Z.-Z. et al., 2018]). Compounds were first tested for their potential against five bacterial strains at a single concentration of 200 μM. If the inhibitory rate above 50%, different concentrations of the compounds were further evaluated for the antibacterial ability.

Series [2] has as its system Escherichia coli ATCC25922. The experiment in a line: Antibacterial assay. In kind it is cell-based. The procedure:
as §1

For series [3], the system named is Pseudomonas aeruginosa ATCC27853. The experiment in a line: Antibacterial assay. In kind it is cell-based. Conditions: for inhibition at 200 µM: Pseudomonas aeruginosa, ATCC27853, read-out: Inhibition rate against Pseudomonas aeruginosa. The procedure:
as §1

The test system of series [4] is Salmonella enterica subsp. enterica ATCC14028. The experiment in a line: Antibacterial assay. It is filed as cell-based. Conditions: for inhibition at 200 µM: Salmonella enterica, ATCC14028, 24 h, read-out: Inhibition rate against Salmonella enterica subsp. enterica. As for the experimental part: as §1
For series [5], the system named is methicillin-resistant S. aureus (MRSA). The experiment in a line: Antibacterial assay. In kind it is cell-based, Staphylococcus aureus. Conditions: for inhibition at 200 µM: read-out: Inhibition rate against Methicillin-resistant Staphylococcus aureus. The procedure:
as §1

Series [6] has as its target β-amyloid precursor protein-cleaving enzyme 1 (β-secretase, BACE1) (Homo sapiens, UniProt P56817). The experiment in a line: BACE1 FRET assay. It is filed as biochemical. As to conditions: 3 h at room temperature, read-out: IC50 BACE1 inhibition. The procedure: β-amyloid precursor protein-cleaving enzyme 1 (β-secretase, BACE1) assays were performed according to the literature ([Qi et al., 2018]; [Yatsu et al., 2019]). First, 10 μL of the test sample, 10 μL of the 722 nM BACE1 substrate (Rh-[…]-Quencher in 50 mM ammonium bicarbonate), and 10 μL of the BACE1 enzyme (1 U/mL) were mixed in black 384-well plates and incubated for 3 h at room temperature. The fluorescence intensity was measured at 540 nm excitation and 590 nm emission using a microplate reader (Tecan Spark 10M, TECAN, Männedorf, Switzerland) at the time points of 1 h and 3 h. The BACE1 inhibition rate was calculated by the following equation: BACE1 inhibition rate (%) = {1–[(S–S0)–(B–B0)/(C–C0)–(B–B0)]} × 100, where C is the fluorescence of a DMSO control (enzyme, substrate, and assay buffer with DMSO) after 3 h of incubation, C0 is the fluorescence of the DMSO control at 1 h after incubation, B is the fluorescence of a non-enzyme control (substrate and assay buffer with DMSO) after 3 h of incubation, B0 is the fluorescence of the non-enzyme control at 1 h after incubation, S is the fluorescence of the tested samples (enzyme, sample solution, and substrate) after 3 h of incubation, and S0 is the fluorescence of the tested samples at 1 h after incubation. The IC50 values were calculated by GraphPad Prism software (v5.02, CA, USA).

The next series can be described thus: in vitro. In kind it is cell-based. As to conditions: human.
The mark [7] stands for this setting: Staphylococcus aureus, MRSA, 200 μM, 24 h.

Chain of β-amyloid precursor protein-cleaving enzyme 1 (β-secretase, BACE1) (P56817 22-501 limits assumed): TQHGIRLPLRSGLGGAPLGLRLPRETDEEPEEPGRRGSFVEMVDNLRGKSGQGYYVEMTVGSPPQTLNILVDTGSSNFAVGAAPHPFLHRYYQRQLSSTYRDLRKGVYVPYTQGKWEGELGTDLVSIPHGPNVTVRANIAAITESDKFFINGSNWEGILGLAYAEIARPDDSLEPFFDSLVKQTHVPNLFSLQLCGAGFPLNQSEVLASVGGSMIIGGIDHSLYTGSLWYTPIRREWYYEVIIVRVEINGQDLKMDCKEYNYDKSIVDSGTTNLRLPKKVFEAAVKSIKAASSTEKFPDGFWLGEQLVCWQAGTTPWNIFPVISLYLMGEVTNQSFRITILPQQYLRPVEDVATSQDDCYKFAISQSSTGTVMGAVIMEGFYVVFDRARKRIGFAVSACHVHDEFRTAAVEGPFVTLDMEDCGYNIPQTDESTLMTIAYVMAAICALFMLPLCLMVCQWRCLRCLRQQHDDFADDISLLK
Procedure for in vitro: The human lung cancer cell line A549 used in this study was purchased from Conservation Genetics CAS Kunming Cell Bank. The cells were cultured in high-glucose DMEM with 10% fetal bovine serum, 100 mg/mL streptomycin, 100 U/mL penicillin, and kept in an incubator at 37°C under an atmosphere of 5% CO2. The cell viability was assessed by 3-(4,5-dimethylthiazol-2-yl)-2,5-diphenyltetrazolium bromide (MTT) method. […] In brief, 100 μL of adherent cells was seeded to each well of a 96-well cell culture plate. The plate was kept for 12 h for adherence. […] However, suspended cells were seeded with the same density of 1 × 10^5 cells/mL every 100 μL of culture medium before adding the test compounds. Then the plate was incubated for another 48 h. After 48 h of incubation, 100 μg of MTT was added to each well, another 4 h of incubation was continued at 37°C. After removal of 100-μL culture medium, the cells were lysed with 20% SDS-50% DMF (100 μL). The remained lysates were subjected to measure the optical density value at 595 nm with a 96-well microtiter plate reader (Tecan Spark 10M, Switzerland). […] All the experiments were in triplicates. The IC50 value was calculated by a published method ([Chen et al., 2018]).

“1,4,5-trihydroxy-7-methoxy-2-methyl-anthraquinone [Compound 14]”: the “Inhibition rate against Staphylococcus aureus subsp. aureus” value in series [1] is “– (This symbol “–” represent no activity)”. In addition, in series [2] (200 μM, 24 h), the “Inhibition rate against Escherichia coli” value is recorded as “– (This symbol “–” represent no activity)”. Also, the “Inhibition rate against Pseudomonas aeruginosa” value in series [3] (200 μM, 24 h) is recorded as 38.2%. The “Inhibition rate against Salmonella enterica subsp. enterica” value in series [4] (200 μM, 24 h) is listed as “– (This symbol “–” represent no activity)”. Besides, the “Inhibition rate against Methicillin-resistant Staphylococcus aureus” value in series [5] (200 μM, 24 h) was found to be 52.0%.
Take `CCCCCC1Cc2c(cc(CC=C(C)C)c(O)c2C(=O)O)O1` (racemic) [Compound 1, (±)-Chevalieric acid]: in series [6], the IC50 amounted to 101 µM.
Take `CC(C)(O/N=C(\C(=O)N[C@@H]1C(=O)N2C(C(=O)[O-])=C(C[n+]3ccccc3)CS[C@H]12)c1csc(N)n1)C(=O)O` [Ceftazidime, ceftazidime, reference compound]: the inhibition at 200 µM in series [2] (Escherichia coli, ATCC25922, 24 h, read-out: Inhibition rate against Escherichia coli) turned out to be 99.8%; in series [4] it was 99.3%.
Regarding `COc1cc(O)cc2c1C(=O)c1c(O)cc(C)cc1[C@@H]2[C@@H](C)CC(C)=O` [Compound 2, (10S,12S)-Chevalierone], in series [3] (200 μM, 24 h), the inhibition at 200 µM was determined as 38.2%.
As for `COc1cc(O)cc2c1C(=O)c1c(O)cc(C)cc1[C@@H]2[C@H](C)CC(C)=O` [Compound 3, (10S,12R)-Chevalierone], in series [3], the “antibacterial activity against P. aeruginosa (in words)” value is “significant antibacterial activities”. For the same compound, the inhibition at 200 µM was 81.9% in series [3] (200 μM, 24 h) and 74.1% in series [5] (setting [7]). In series [5], the “antibacterial activity against MRSA (in words)” value is “significant antibacterial activities”.
For `COc1cc(O)cc2c1C(=O)c1c(O)cc(C)cc1[C@H]2[C@H](C)CC(C)=O` [Compound 4, (10R,12R)-Chevalierone], the “antibacterial activity against P. aeruginosa (in words)” value in series [3] was “significant antibacterial activities”. In addition, the inhibition at 200 µM in series [3] (200 μM, 24 h) worked out at 81%; in series [5] (setting [7]) it was 85%. For the same compound, the “antibacterial activity against MRSA (in words)” value in series [5] is recorded as “significant antibacterial activities”.
As for `COc1cc(O)cc2c1C(=O)c1c(O)cc(C)cc1[C@H]2[C@@H](C)CC(C)=O` [Compound 5, (10R,12S)-Chevalierone], in series [3], the “antibacterial activity against P. aeruginosa (in words)” value is on record as “significant antibacterial activities”. The inhibition at 200 µM in series [3] (200 μM, 24 h) was found to be 91.5%; in series [5] (setting [7]), 88.5%. Also, the “antibacterial activity against MRSA (in words)” value in series [5] was “significant antibacterial activities”. In addition, the MIC50 in series [5] (Staphylococcus aureus, MRSA, read-out: MIC50 against MRSA) was determined as 44 µM (≈ 15.6 µg/mL).
As for `CCCCCCCc1c(O)cc2c(c1C=O)OC(C)(C)C=C2` [Compound 6, asperglaucin B], the minimum inhibitory concentration (MIC) in series [5] (Staphylococcus aureus, MRSA, read-out: MIC against MRSA) was found to be 44 µM (≈ 13.3 µg/mL). Moreover, in series [6], the IC50 is over 100 µM.
In the case of `CCC/C=C/c1cc2c(C=O)c(O)c(CC=C(C)C)cc2o1` [Compound 7, 2-(2′,3-epoxy-1′,3′-heptadienyl)-6-hydroxy-5-(3-methyl-2-butenyl)benzaldehyde], the IC50 in series [6] is over 100 µM.
Take `CCCCC/C=C/c1c(O)cc(CC=C(C)C)c(O)c1C=O` [Compound 8, tetrahydroauroglaucin]: the 50% inhibitory concentration (IC50) in series [6] worked out at 36.1 µM.
Same read-out and setting: under `CCC/C=C/C=C/c1c(O)cc(CC=C(C)C)c(O)c1C=O` [Compound 9, dihydroauroglaucin] stands over 100 µM.
Consider `CCCCCCCc1c(O)cc(CC=C(C)C)c(O)c1C=O` [Compound 10, flavoglaucin], for which inhibition in “in vitro” was half-maximal at 39.7 µM (IC50 at 48 h). For the same compound, the half-maximal inhibitory concentration (IC50) in series [6] came to 40.9 µM.
For the compound `C/C=C/C=C/CCc1c(O)cc(CC=C(C)C)c(O)c1C=O` [Compound 11, isodihydroauroglaucin], the IC50 in series [6] amounted to 34.9 µM.
Regarding `CC(C)=CCc1cc2oc(=O)ccc2c(C=O)c1O` [Compound 12, cristaldehyde A], the IC50 in series [6] was over 100 µM.
Consider `CCC[C@@H](O)[C@@H]1C=Cc2c(cc(CC=C(C)C)c(O)c2C=O)O1` [Compound 13, (3′S,4′R)-6-(3′,5-epoxy-4′-hydroxy-1′-heptenyl)-2-hyd roxy-3-(3″-methyl-2″-butenyl)benzaldehyde], for which the concentration for half-maximal inhibition (IC50) in series [6] was over 100 µM.
Consider `COc1cc(O)c2c(c1)C(=O)c1cc(C)cc(O)c1C2=O` [Compound 15, physcion], for which the inhibition at 200 µM in series [3] (200 μM, 24 h) worked out at 38%.
Turning to `CC1(C)S[C@@H]2[C@H](NC(=O)Cc3ccccc3)C(=O)N2[C@H]1C(=O)O` [Penicillin G sodium, Penicillin G sodium salt, reference compound], the inhibition at 200 µM in series [3] (200 μM, 24 h) was determined as 99.9%; in series [4], 75.7%; in series [5] (setting [7]), 60.5%.
